Laboratory results as given in patent publication US20090252788A1, “Balsalazide formulations and manufacture and use thereof” (Salix Pharmaceuticals, Inc., priority 2005, published 2009).

Experiment: Particle size distribution and specific surface area (LS 200, Small Volume Module, Fraunhofer optical model)
Format: physicochemical
Details: for Particle size, % < 10: 10% of volume below this size; for Particle size, % < 25: 25% of volume below this size; for Particle size, % < 50: 50% of volume below this size; for Particle size, % < 75: 75% of volume below this size; for Particle size, % < 100: 100% of volume below this size; for Mean particle size (volume statistics, arithmetic) / Median particle size (volume statistics, arithmetic) / Specific Surf. Area: calculations from 0.375 μm to 2000 μm
Description: FIG. 2 depicts and the data below tabulate for Sample 1 the arithmetic statistics describing surface area, particle size, and cumulative volume characteristics for one lot of drug substance (feed material). The particle size distribution for this lot is depicted in FIG. 2.
Table 11 A-D tabulates the arithmetic statistics describing surface area, particle size, and cumulative volume characteristics for three lots of drug substance (feed material). The particle size distributions for these lots are depicted in FIG. 7. […] Of these three lots of drug substance, 100% of the particles are less than 83.89 μm, 373.1 μm, and 69.61 μm, respectively.
Table 12 tabulates the arithmetic statistics describing surface area, particle size, and cumulative volume characteristics for three lots of drug product (encapsulated granulation samples) that were manufactured with the three lots of drug substance (feed material) as depicted in FIG. 7. […] Of these three lots of drug product, 100% of the granules are less than 1660 μm, 2000 μm, and 1512 μm, respectively. The particle size distributions for these three lots are depicted in FIG. 8.

[1] = Particle Diameter (Lower) 0.375 μm
[2] = Particle Diameter (Lower) 0.656 μm
[3] = Particle Diameter (Lower) 1.149 μm
[4] = Particle Diameter (Lower) 2.011 μm
[5] = Particle Diameter (Lower) 3.519 μm
[6] = Particle Diameter (Lower) 6.158 μm
[7] = Particle Diameter (Lower) 10.78 μm
[8] = Particle Diameter (Lower) 18.86 μm
[9] = Particle Diameter (Lower) 33.01 μm
[10] = Particle Diameter (Lower) 57.77 μm
[11] = Particle Diameter (Lower) 101.1 μm
[12] = Particle Diameter (Lower) 176.9 μm
[13] = Particle Diameter (Lower) 309.6 μm
[14] = Particle Diameter (Lower) 541.9 μm
[15] = Particle Diameter (Lower) 948.3 μm
[16] = Particle Diameter (Lower) 1660 μm

Compound	Cum. < Volume % [1] [%]	Diff. Volume % [1] [%]	Cum. < Volume % [2] [%]	Diff. Volume % [2] [%]	Cum. < Volume % [3] [%]	Diff. Volume % [3] [%]	Cum. < Volume % [4] [%]	Diff. Volume % [4] [%]	Cum. < Volume % [5] [%]	Diff. Volume % [5] [%]	Cum. < Volume % [6] [%]	Diff. Volume % [6] [%]	Cum. < Volume % [7] [%]	Diff. Volume % [7] [%]	Diff. Volume % [8] [%]	Cum. < Volume % [9] [%]	Diff. Volume % [9] [%]	Cum. < Volume % [10] [%]	Diff. Volume % [10] [%]	Cum. < Volume % [11] [%]	also measured
O=C(O)CCNC(=O)c1ccc(/N=N/c2ccc(O)c(C(=O)O)c2)cc1 [Feed Powder Sample A (#35.$01)]	0	1.82	1.82	3.88	5.70	4.90	10.6	9.30	19.9	18.4	38.3	25.7	63.9	21.8	10.2	95.9	3.32	99.3	0.75	100	Particle size, % < 10: 1.899 μm; Particle size, % < 25: 4.253 μm; Particle size, % < 50: 8.031 μm; Particle size, % < 75: 13.88 μm; Particle size, % < 100: 83.89 μm; Cum. < Volume % [8]: 85.7%; Diff. Volume % [11]: 0%; Cum. < Volume % [12]: 100%; Diff. Volume % [12]: 0%; Cum. < Volume % [13]: 100%; Mean particle size (volume statistics, arithmetic): 10.85 μm; Median particle size (volume statistics, arithmetic): 8.031 μm; Specific Surf. Area: 14230 cm^2/mL
O=C(O)CCNC(=O)c1ccc(/N=N/c2ccc(O)c(C(=O)O)c2)cc1 [Feed Powder Sample B (#41.$02)]	0	0.64	0.64	1.50	2.15	1.94	4.08	3.16	7.24	6.98	14.2	13.9	28.1	21.3	23.1	72.5	17.0	89.5	7.10	96.6	Cum. < Volume % [8]: 49.5%; Diff. Volume % [11]: 2.65%; Cum. < Volume % [12]: 99.3%; Diff. Volume % [12]: 0.73%
O=C(O)CCNC(=O)c1ccc(/N=N/c2ccc(O)c(C(=O)O)c2)cc1 [Feed Powder Sample C (#53.$02)]	0	1.96	1.96	4.37	6.33	6.03	12.4	11.3	23.7	20.6	44.2	26.7	70.9	20.7	7.30	98.9	1.07	99.99	0.013	100	Diff. Volume % [11]: 0%; Cum. < Volume % [12]: 100%; Diff. Volume % [12]: 0%
O=C([O-])CCNC(=O)c1ccc(/N=N/c2ccc(O)c(C(=O)[O-])c2)cc1.[Na+].[Na+] [Sample 1]	0	2.66	2.66	6.09	8.74	8.50	17.2	14.4	31.6	22.8	54.5	25.3	79.8	15.8	4.34	99.97	0.030	100	0	100	Particle size, % < 10: 1.266 μm; Particle size, % < 25: 2.827 μm; Particle size, % < 50: 5.584 μm; Particle size, % < 75: 9.624 μm; Particle size, % < 100: 43.67 μm; Cum. < Volume % [8]: 95.6%; Diff. Volume % [11]: 0%; Cum. < Volume % [12]: 100%; Diff. Volume % [12]: 0%; Cum. < Volume % [13]: 100%; Diff. Volume % [13]: 0%; Cum. < Volume % [14]: 100%; Diff. Volume % [14]: 0%; Cum. < Volume % [15]: 100%; Diff. Volume % [15]: 0%; Cum. < Volume % [16]: 100%; Diff. Volume % [16]: 0%; Mean particle size (volume statistics, arithmetic): 6.967 μm; Median particle size (volume statistics, arithmetic): 5.584 μm; Specific Surf. Area: 19389 cm^2/mL
O=C([O-])CCNC(=O)c1ccc(/N=N/c2ccc(O)c(C(=O)[O-])c2)cc1.[Na+].[Na+] [Sample 2]	0	2.91	2.91	6.59	9.50	9.37	18.9	16.1	35.0	24.3	59.3	24.1	83.4	12.6	3.78	99.8	0.23	100	0	100	Particle size, % < 10: 1.192 μm; Particle size, % < 25: 2.586 μm; Particle size, % < 50: 5.044 μm; Particle size, % < 75: 8.715 μm; Particle size, % < 100: 47.94 μm; Cum. < Volume % [8]: 96.0%; Diff. Volume % [11]: 0%; Cum. < Volume % [12]: 100%; Diff. Volume % [12]: 0%; Cum. < Volume % [13]: 100%; Diff. Volume % [13]: 0%; Cum. < Volume % [14]: 100%; Diff. Volume % [14]: 0%; Cum. < Volume % [15]: 100%; Diff. Volume % [15]: 0%; Cum. < Volume % [16]: 100%; Diff. Volume % [16]: 0%; Mean particle size (volume statistics, arithmetic): 6.503 μm; Median particle size (volume statistics, arithmetic): 5.044 μm; Specific Surf. Area: 20709 cm^2/mL
